Measurements: US20190315711A1 (eXIthera Pharmaceuticals, Inc., priority 2016, published 2019)

Biological target: human Factor XIa (Homo sapiens, UniProt P03951)
Assay: Factor XIa enzyme inhibition assay (dose response, fluorogenic AMC substrate)
Assay type: biochemical
Parameters: Enzyme: Factor XIa
Details: purified enzyme; substrate 50 μM, enzyme 0.25 nM; read-out: hFXIa IC50
Method: • Assay buffer: 20 mM Hepes, pH 7.4; 150 mM NaCl; 0.02% Tween 20 • Compounds: 10 mM stocks in DMSO • Substrate: 20 mM Glp-Pro-Arg-AMC, 25 mg/2.3 mL H2O (store at +4° C.) [Factor XIa, thrombin, and trypsin] • 20 mM Pro-Phe-Arg-AMC (Bachem I-1295), 25 mg/2.2 mL H2O or Boc-Leu-Gly-Arg-AMC (Bachem I-1105), 25 mg/2.07 mL H2O (store at +4° C.) [Factor Xa] • Enzyme: Factor XIa; 0.25 M in 50% glycerol (20 μg/mL) • Trypsin; 0.2 μM in 50% glycerol (4.8 μg/mL) • Thrombin; 0.2 μM in 50% glycerol (7.34 μg/mL) • Factor Xa; 0.2 μM in 50% glycerol (9.2 μg/mL)
• 1. Dilute the substrate to 100 μM in assay buffer (30 μL/6 mL). The enzyme is diluted to 0.5 nM just prior to use (12 L/6 mL for Factor XIa; 15 μL/6 mL for all of the rest.) • 2. Pipette 50 μL of substrate into each well of the 96 well (12×8) microtiter plate. (Column 1 is used as the 100% activity control and receives no compound, and Column 12 is the blank and receives no enzyme.) Add an additional 46 μL to column 2. • 3. Pipette 4 μL of each compound into the appropriate well in column 2 of the plate (unknowns assayed in triplicate, standard assayed in duplicate). The final compound concentration will be 1/50th of the stock. • 4. Serially two-fold dilute the compound by mixing the sample in column 2, removing 50 μL to the next well (column 3), mix and remove to column 4, etc. until column 11. After mixing column 11, remove 50 μL and discard. • 5. Pipette 50 μL of buffer into column 12. Initiate the reaction by adding 50 μL of enzyme solution to each well of columns 1-11 as rapidly as possible. • 6. Read the plate in a spectrophotometer (SpectraMax) at 30° C., wherein each well is measured every 60 s for 30 min. For Factor Xa assays, each well is measured every 1 min for a total of 60 min. • 7. For Factor XIa assays, the compounds are assayed, in duplicate, at 3 different starting concentrations, 20, 2, and 0.2 μM; 1:10, 1:100, and 1:1000 dilution of 10 mM stock or at 2, 0.2, and 0.02 μM; 1:100, 1:1000, and 1:10,000 dilution of 10 mM stock. Data for each concentration are combined for graphing and data fitting. • 8. Data can be used both for estimation of IC50 and for estimation of Kon.
Potential inhibitors of Factor XIa were evaluated using the following assay.
PyroGlu-Pro-Arg-7-methylaminocourin (AMC), available from CPC Scientific, Inc., is based on the substrate pyro-Glu-Pro-Arg-pNA (S-2366), available from Diapharma Group, Inc. (Columbus, Ohio), wherein the p-nitroanaline group is replaced with 7-methylaminocoumarin (AMC).
The final concentration of the substrate in the assay was 50 μM, and the final concentration of the enzyme was 0.25 nM. Inhibitors were tested by serial dilution over an appropriate range to yield a dose response curve for determination of the inhibitors' IC50 value. The assay mixture was read every minute for 30 minutes in order to generate progress curves. The plates were read in a Spectramax m5 Multimode Plate Reader (Molecular Devices LLC, Sunnyvale, Calif.). Dose response curves were fit to Equation 1 below in which A is the maximum inhibition, B is the minimum inhibition, C is the IC50, and D is the Hill coefficient.
Y=[(A−B)/(1+(X/C)^D)]+B (Equation 1)

Sequence of human Factor XIa (P03951 388-625 limits assumed): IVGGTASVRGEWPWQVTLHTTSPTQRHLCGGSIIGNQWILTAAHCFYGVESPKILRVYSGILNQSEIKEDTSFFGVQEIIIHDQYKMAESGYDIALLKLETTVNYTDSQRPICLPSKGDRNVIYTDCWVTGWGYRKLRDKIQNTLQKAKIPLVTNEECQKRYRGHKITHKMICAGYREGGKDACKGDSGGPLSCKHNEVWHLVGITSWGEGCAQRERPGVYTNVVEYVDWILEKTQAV
Sequence of human Factor XIa (P03951 19-387 partner limits assumed): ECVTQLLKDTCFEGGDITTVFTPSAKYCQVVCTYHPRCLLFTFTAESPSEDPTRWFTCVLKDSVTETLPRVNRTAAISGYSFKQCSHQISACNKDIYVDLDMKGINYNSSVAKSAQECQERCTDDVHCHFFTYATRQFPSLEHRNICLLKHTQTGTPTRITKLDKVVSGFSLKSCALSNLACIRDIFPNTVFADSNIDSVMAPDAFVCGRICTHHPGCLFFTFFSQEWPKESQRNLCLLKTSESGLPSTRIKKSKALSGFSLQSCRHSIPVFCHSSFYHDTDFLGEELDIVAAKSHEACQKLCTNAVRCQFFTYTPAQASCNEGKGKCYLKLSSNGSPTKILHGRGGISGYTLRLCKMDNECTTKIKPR

SMILES | IC50 [µM]
Nc1cc(C[C@H]2C(=O)N(C(=O)N[C@@H](C3CCCCC3)C(F)(F)F)[C@@H]2C(=O)NC2CC2)ccn1 [Compound 1] | 0.01 to 0.1
CCNC(=O)[C@@H]1[C@@H](Cc2ccnc(N)c2)C(=O)N1C(=O)N[C@@H](c1ccccc1)C(F)(F)F [Compound 2] | 0.01 to 0.1
Cc1cccc(N(C)C(=O)[C@@H]2[C@@H](Cc3ccnc(N)c3)C(=O)N2C(=O)N[C@@H](C2CCCCC2)C(F)(F)F)c1 [Compound 14] | 0.01 to 0.1
CN(C(=O)[C@@H]1[C@@H](Cc2ccnc(N)c2)C(=O)N1C(=O)N[C@@H](C1CCCCC1)C(F)(F)F)c1ccccn1 [Compound 16] | < 0.01
CN(C(=O)[C@@H]1[C@@H](Cc2ccnc(N)c2)C(=O)N1C(=O)N[C@@H](C1CCCCC1)C(F)(F)F)c1ccncn1 [Compound 20] | < 0.01
CC[C@@H](NC(=O)N1C(=O)[C@H](Cc2ccnc(N)c2)[C@H]1C(=O)N(C)c1ccccc1C)C1CCCCC1 [Compound 26] | 0.01 to 0.1
CN(C(=O)[C@@H]1[C@@H](Cc2ccnc(N)c2)C(=O)N1C(=O)N[C@@H](C1CCCCC1)C(F)(F)F)c1cnccn1 [Compound 30] | < 0.01
CCN(C(=O)[C@@H]1[C@@H](Cc2ccnc(N)c2)C(=O)N1C(=O)N[C@@H](C1CCCCC1)C(F)(F)F)c1ccncc1 [Compound 33] | < 0.01
CCN(C(=O)[C@@H]1[C@@H](Cc2ccnc(N)c2)C(=O)N1C(=O)N[C@@H](C1CCCCC1)C(F)(F)F)c1ccnc(C)c1 [Compound 34] | < 0.01
CN(C(=O)[C@@H]1[C@@H](Cc2ccnc(N)c2)C(=O)N1C(=O)NC1CCCc2ccccc21)c1ccccc1 (some centres unmarked) [Compound 41] | 0.1 to 1
CC[C@@H](NC(=O)N1C(=O)[C@H](Cc2ccnc(N)c2)[C@H]1C(=O)N(C)c1ccccc1)c1ccncc1 [Compound 43] | 0.1 to 1
CN(C(=O)[C@@H]1[C@@H](Cc2ccnc(N)c2)C(=O)N1C(=O)N[C@H](C1CCCCC1)C1CC1)c1ccccc1 [Compound 45] | < 0.01
CC[C@@H](NC(=O)N1C(=O)[C@H](Cc2ccnc(N)c2)[C@H]1C(=O)N(C)c1ccccc1)c1ccc(OC(F)(F)F)cc1 [Compound 47] | 0.1 to 1
CC[C@@H](NC(=O)N1C(=O)[C@H](Cc2ccnc(N)c2)[C@H]1C(=O)N(C)c1ccccc1)c1ccc(F)c(F)c1 [Compound 48] | 0.1 to 1
CN(C(=O)[C@@H]1[C@@H](Cc2ccnc(N)c2)C(=O)N1C(=O)N[C@@H](C1CCCCC1)C1CC1)c1ncccn1 [Compound 53] | < 0.01
Cc1cc(N(C)C(=O)[C@@H]2[C@@H](Cc3ccnc(N)c3)C(=O)N2C(=O)N[C@@H](C2CCCCC2)C2CC2)ccn1 [Compound 56] | < 0.01
CN(C(=O)[C@@H]1[C@@H](Cc2ccnc(N)c2)C(=O)N1C(N)=O)c1ccccc1 [Compound 57] | 0.1 to 1
CN(C(=O)[C@@H]1[C@@H](Cc2ccnc(N)c2)C(=O)N1C(=O)N[C@@H](c1cccnc1)C1CC1)c1ccccc1 [Compound 58] | 0.01 to 0.1
C[C@@H](NC(=O)N1C(=O)[C@H](Cc2ccnc(N)c2)[C@H]1C(=O)N(C)c1ccccc1)c1cccnc1 [Compound 60] | 0.01 to 0.1
CC[C@@H](NC(=O)N1C(=O)[C@H](Cc2ccncc2)[C@H]1C(=O)N(C)c1ccccc1)C1CCCCC1 [Compound 62] | 0.1 to 1
CN(C(=O)[C@@H]1[C@@H](Cc2ccncc2)C(=O)N1C(=O)N[C@@H](C1CCCCC1)C1CC1)c1ccccc1 [Compound 63] | 0.1 to 1
CC[C@@H](NC(=O)N1C(=O)[C@H](Cc2ccncc2)[C@H]1C(=O)N(C)c1ccncc1)C1CCCCC1 [Compound 65] | 0.1 to 1
CC[C@@H](NC(=O)N1C(=O)[C@H](Cc2ccncc2)[C@H]1C(=O)N(C)c1ccccc1)c1cccnc1 [Compound 66] | 0.1 to 1
CN(C(=O)[C@@H]1[C@@H](Cc2ccnc(N)c2)C(=O)N1C(=O)N[C@@H](c1cccnc1)C(F)(F)F)c1ccccc1 [Compound 67] | 0.01 to 0.1
CCC[C@@H](NC(=O)N1C(=O)[C@H](Cc2ccnc(N)c2)[C@H]1C(=O)N(C)c1ccccc1)c1cccnc1 [Compound 68] | 0.01 to 0.1
CCC[C@H](NC(=O)N1C(=O)[C@H](Cc2ccnc(N)c2)[C@H]1C(=O)N(C)c1ccccc1)c1cccnc1 [Compound 69] | 0.01 to 0.1
CN(C(=O)[C@@H]1[C@@H](Cc2ccnc(N)c2)C(=O)N1C(=O)NC(C(F)(F)F)C(F)(F)F)c1ccccc1 [Compound 71] | 0.01 to 0.1
CN(C(=O)[C@@H]1[C@@H](Cc2ccnc(N)c2)C(=O)N1C(N)=O)c1ccncc1 [Compound 72] | 0.01 to 0.1
CCC[C@@H](NC(=O)N1C(=O)[C@H](Cc2ccnc(N)c2)[C@H]1C(=O)N(C)c1ccncc1)c1cccnc1 [Compound 73] | < 0.01

Continued, values first:

IC50 [µM] | SMILES
< 0.01 | CCC[C@@H](NC(=O)N1C(=O)[C@H](Cc2ccnc(N)c2)[C@H]1C(=O)N(C)c1ncccn1)c1cccnc1 [Compound 74]
< 0.01 | CN(C(=O)[C@@H]1[C@@H](Cc2ccnc(N)c2)C(=O)N1C(=O)N[C@@H](c1cccnc1)C1CC1)c1ncccn1 [Compound 75]
0.01 to 0.1 | Nc1cc(C[C@H]2C(=O)N(C(=O)N[C@@H](C3CCCCC3)C(F)(F)F)[C@@H]2C(=O)N2CCCc3ccccc32)ccn1 [Compound 76]
> 1 | CC[C@@H](NC(=O)N1C(=O)[C@H](Cc2cc(N)ncc2F)[C@H]1C(=O)N(C)c1ccccc1)C1CCCCC1 [Compound 85]
> 1 | CC[C@@H](NC(=O)N1C(=O)[C@H](Cc2cc(N)ncc2C)[C@H]1C(=O)N(C)c1ccccc1)C1CCCCC1 [Compound 88]
0.01 to 0.1 | CC[C@@H](NC(=O)N1C(=O)[C@H](Cc2cc(N)ncc2C)[C@H]1C(=O)N(C)c1ccncc1)C1CCCCC1 [Compound 92]
0.01 to 0.1 | CC[C@@H](NC(=O)N1C(=O)[C@H](Cc2ccnc(N)c2)[C@H]1C(=O)N(C)c1ccncc1)c1ccc(F)c(F)c1 [Compound 93]
0.01 to 0.1 | CC[C@@H](NC(=O)N1C(=O)[C@H](Cc2ccnc(N)c2)[C@H]1C(=O)N(C)c1ccncc1)c1ccc(OC(F)(F)F)cc1 [Compound 94]
< 0.01 | Cc1cccc(C(NC(=O)N2C(=O)[C@H](Cc3ccnc(N)c3)[C@H]2C(=O)N(C)c2ccncc2)c2cccc(C)c2)c1 [Compound 101]
0.01 to 0.1 | CC[C@@H](NC(=O)N1C(=O)[C@H](Cc2ccnc(N)c2)[C@H]1C(=O)N(C)c1ccncc1)c1cncnc1 [Compound 102]
< 0.01 | CC[C@@H](NC(=O)N1C(=O)[C@H](Cc2ccnc(N)c2)[C@H]1C(=O)N(C)c1ccncc1)c1cccc(F)c1 [Compound 103]
0.01 to 0.1 | CC[C@@H](NC(=O)N1C(=O)[C@H](Cc2ccnc(N)c2)[C@H]1C(=O)N(C)c1ccncc1)c1cccc(C(F)(F)F)c1 [Compound 105]
0.01 to 0.1 | CC[C@@H](NC(=O)N1C(=O)[C@H](Cc2ccnc(N)c2)[C@H]1C(=O)N(C)c1ccncc1)c1cccc(OC(F)(F)F)c1 [Compound 106]
0.01 to 0.1 | CC[C@@H](NC(=O)N1C(=O)[C@H](Cc2ccnc(NC(C)=O)c2)[C@H]1C(=O)N(C)c1ccncc1)c1cccc(Cl)c1 [Compound 107]
< 0.01 | CC[C@@H](NC(=O)N1C(=O)[C@H](Cc2ccnc(N)c2)[C@H]1C(=O)N(C)c1ccncc1)c1ccccc1F [Compound 108]
< 0.01 | CC[C@@H](NC(=O)N1C(=O)[C@H](Cc2ccnc(NC)c2)[C@H]1C(=O)N(C)c1ccncc1)c1cccc(Cl)c1 [Compound 109]
< 0.01 | CC[C@@H](NC(=O)N1C(=O)[C@H](Cc2ccnc(N)c2)[C@H]1C(=O)N(C)c1ccncc1)c1cc(F)ccc1F [Compound 110]
< 0.01 | CC[C@@H](NC(=O)N1C(=O)[C@H](Cc2cc(C)nc(N)c2)[C@H]1C(=O)N(C)c1ccncc1)c1cccc(Cl)c1 [Compound 111]
